Results taken from paper PMC6109843, “Novel Quinazolinone Inhibitors of ALK2 Flip between Alternate Binding Modes: Structure–Activity Relationship, Structural Characterization, Kinase Profiling, and Cellular Proof of Concept” (Journal of Medicinal Chemistry, 2018).

Experiments:
Test in all cases: DiscoverX scanEDGE kinase panel
Assay type in all cases: binding
Settings in all cases: Cmpd Conc 1000 nM, read-out: % Ctrl
CHEK1 = target: T1, CHEK1 (Homo sapiens, UniProt O14757)
T1 construct: purchased DiscoverX (DiscoveRx) KINOMEscan scanEDGE / KdELECT
Excerpt: (§1) We hypothesized that inhibitors of the normal and flipped modes would display distinct selectivity profiles.
(§2) 1. 16 and 21 kinome selectivity data
(§3) (P – phosphorylated; nP – nonphosphorylated; % Ctrl values show the % of DNAEtagged
(§4) kinase which was not displaced from a solid supported ligand by a test compound relative to
(§5) untreated control, quantified by qPCR).
(§6) Please note: ALKs 1, 2, 3, 4, 5 and 6 are listed by their gene symbols: ACVRL1 (ALK1), ACVR1
(§7) (ALK2), BMPR1A (ALK3), ACVR1B (ALK4), TGFBR1 (ALK5) and BMPR1B (ALK6)
(§8) Cmpd DiscoverX Gene Symbol Entrez Gene Symbol % Ctrl Cmpd Conc (nM)

ERBB4 = target: T2, ERBB4 (Homo sapiens, UniProt Q15303)
T2 construct: purchased DiscoverX (DiscoveRx) KINOMEscan scanEDGE / KdELECT
Excerpt: as §1, §2, §3, §4, §5, §6, §7, §8

FGFR3 = target: T3, FGFR3 (Homo sapiens, UniProt P22607)
T3 construct: purchased DiscoverX (DiscoveRx) KINOMEscan scanEDGE / KdELECT
Excerpt: as §1, §2, §3, §4, §5, §6, §7, §8

p38Ealpha = target: T4, p38Ealpha (Homo sapiens, UniProt Q16539)
T4 construct: purchased DiscoverX (DiscoveRx) KINOMEscan scanEDGE / KdELECT
Excerpt: as §1, §2, §3, §4, §5, §6, §7, §8

JNK1 = target: T5, JNK1 (Homo sapiens, UniProt P45983)
T5 construct: purchased DiscoverX (DiscoveRx) KINOMEscan scanEDGE / KdELECT
T5 sequence (P45983 whole entry): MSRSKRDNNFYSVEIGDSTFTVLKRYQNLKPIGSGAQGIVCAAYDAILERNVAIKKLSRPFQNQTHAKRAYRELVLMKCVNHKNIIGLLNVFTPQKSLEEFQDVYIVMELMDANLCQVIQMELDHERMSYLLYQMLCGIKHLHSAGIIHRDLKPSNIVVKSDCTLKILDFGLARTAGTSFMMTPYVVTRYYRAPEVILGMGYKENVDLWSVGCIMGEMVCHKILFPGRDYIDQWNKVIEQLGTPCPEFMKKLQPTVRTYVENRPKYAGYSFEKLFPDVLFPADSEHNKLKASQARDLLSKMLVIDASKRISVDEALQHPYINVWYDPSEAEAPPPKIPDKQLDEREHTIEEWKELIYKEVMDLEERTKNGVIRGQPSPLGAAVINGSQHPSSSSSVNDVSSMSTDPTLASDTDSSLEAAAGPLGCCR
Excerpt: as §1, §2, §3, §4, §5, §6, §7, §8

CSNK1D = target: T6, CSNK1D (Homo sapiens, UniProt P48730)
T6 construct: purchased DiscoverX (DiscoveRx) KINOMEscan scanEDGE / KdELECT
Excerpt: as §1, §2, §3, §4, §5, §6, §7, §8

PAK4 = target: T7, PAK4 (Homo sapiens, UniProt O96013)
T7 construct: purchased DiscoverX (DiscoveRx) KINOMEscan scanEDGE / KdELECT
Excerpt: as §1, §2, §3, §4, §5, §6, §7, §8

CDK11 = target: T8, CDK11 (Homo sapiens, UniProt Q9BWU1)
T8 construct: purchased DiscoverX (DiscoveRx) KINOMEscan scanEDGE / KdELECT
Excerpt: as §1, §2, §3, §4, §5, §6, §7, §8

YANK3 = target: T9, YANK3 (Homo sapiens, UniProt Q86UX6)
T9 construct: purchased DiscoverX (DiscoveRx) KINOMEscan scanEDGE / KdELECT
Excerpt: as §1, §2, §3, §4, §5, §6, §7, §8

AKT1 = target: T10, AKT1 (Homo sapiens, UniProt P31749)
T10 construct: purchased DiscoverX (DiscoveRx) KINOMEscan scanEDGE / KdELECT
Excerpt: as §1, §2, §3, §4, §5, §6, §7, §8

PAK1 = target: T11, PAK1 (Homo sapiens, UniProt Q13153)
T11 construct: purchased DiscoverX (DiscoveRx) KINOMEscan scanEDGE / KdELECT
Excerpt: as §1, §2, §3, §4, §5, §6, §7, §8

DCAMKL1 = target: T12, DCAMKL1 (Homo sapiens, UniProt O15075)
T12 construct: purchased DiscoverX (DiscoveRx) KINOMEscan scanEDGE / KdELECT
Excerpt: as §1, §2, §3, §4, §5, §6, §7, §8

TNK1 = target: T13, TNK1 (Homo sapiens, UniProt Q13470)
T13 construct: purchased DiscoverX (DiscoveRx) KINOMEscan scanEDGE / KdELECT
Excerpt: as §1, §2, §3, §4, §5, §6, §7, §8

BMPR1B (ALK6) = target: T14, BMPR1B (ALK6) (Homo sapiens, UniProt O00238)
T14 construct: purchased DiscoverX (DiscoveRx) KINOMEscan scanEDGE / KdELECT
Excerpt: as §1, §2, §3, §4, §5, §6, §7, §8

CDK7 = target: T15, CDK7 (Homo sapiens, UniProt P50613)
T15 construct: purchased DiscoverX (DiscoveRx) KINOMEscan scanEDGE / KdELECT
T15 sequence (P50613 whole entry): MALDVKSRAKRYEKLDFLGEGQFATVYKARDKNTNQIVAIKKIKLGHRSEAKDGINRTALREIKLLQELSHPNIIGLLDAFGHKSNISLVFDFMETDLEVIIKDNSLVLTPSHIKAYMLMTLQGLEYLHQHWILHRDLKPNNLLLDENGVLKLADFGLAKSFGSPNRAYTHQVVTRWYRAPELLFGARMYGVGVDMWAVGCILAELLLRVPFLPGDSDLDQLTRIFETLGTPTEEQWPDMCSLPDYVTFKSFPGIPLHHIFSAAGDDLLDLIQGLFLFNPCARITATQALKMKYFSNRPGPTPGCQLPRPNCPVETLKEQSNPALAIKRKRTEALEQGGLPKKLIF
Excerpt: as §1, §2, §3, §4, §5, §6, §7, §8

CDK9 = target: T16, CDK9 (Homo sapiens, UniProt P50750)
T16 construct: purchased DiscoverX (DiscoveRx) KINOMEscan scanEDGE / KdELECT
Excerpt: as §1, §2, §3, §4, §5, §6, §7, §8

BMPR2 = target: T17, BMPR2 (Homo sapiens, UniProt Q13873)
T17 construct: purchased DiscoverX (DiscoveRx) KINOMEscan scanEDGE / KdELECT
Excerpt: as §1, §2, §3, §4, §5, §6, §7, §8

KIT = target: T18, KIT (Homo sapiens, UniProt P10721)
T18 construct: purchased DiscoverX
T18 sequence (P10721 26-976): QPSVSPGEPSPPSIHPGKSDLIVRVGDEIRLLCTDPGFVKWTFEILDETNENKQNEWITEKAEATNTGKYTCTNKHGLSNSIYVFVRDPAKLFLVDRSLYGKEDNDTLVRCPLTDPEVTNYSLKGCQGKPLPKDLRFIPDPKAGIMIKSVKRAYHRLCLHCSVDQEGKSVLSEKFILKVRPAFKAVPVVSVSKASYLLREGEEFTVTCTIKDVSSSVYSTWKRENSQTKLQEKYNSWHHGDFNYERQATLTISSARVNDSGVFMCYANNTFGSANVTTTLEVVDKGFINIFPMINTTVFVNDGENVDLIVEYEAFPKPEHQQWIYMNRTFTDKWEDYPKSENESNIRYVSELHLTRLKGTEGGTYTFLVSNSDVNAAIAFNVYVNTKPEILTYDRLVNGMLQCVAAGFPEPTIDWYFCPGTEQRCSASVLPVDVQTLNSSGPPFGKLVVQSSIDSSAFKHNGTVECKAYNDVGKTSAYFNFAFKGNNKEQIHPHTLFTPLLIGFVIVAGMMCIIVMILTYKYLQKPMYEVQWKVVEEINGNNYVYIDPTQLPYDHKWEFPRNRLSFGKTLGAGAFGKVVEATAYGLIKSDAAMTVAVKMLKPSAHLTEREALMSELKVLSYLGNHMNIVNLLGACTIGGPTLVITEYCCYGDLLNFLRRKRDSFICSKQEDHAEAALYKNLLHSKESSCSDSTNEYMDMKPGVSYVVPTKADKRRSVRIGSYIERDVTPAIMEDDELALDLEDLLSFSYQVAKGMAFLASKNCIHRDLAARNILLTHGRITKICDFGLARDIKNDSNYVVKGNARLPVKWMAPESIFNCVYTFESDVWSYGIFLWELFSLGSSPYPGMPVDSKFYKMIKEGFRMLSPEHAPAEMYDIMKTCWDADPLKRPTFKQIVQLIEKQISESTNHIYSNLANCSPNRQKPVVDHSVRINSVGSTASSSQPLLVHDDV
Excerpt: as §1, §2, §3, §4, §5, §6, §7, §8

FGFR2 = target: T19, FGFR2 (Homo sapiens, UniProt P21802)
T19 construct: purchased DiscoverX (DiscoveRx) KINOMEscan scanEDGE / KdELECT
T19 sequence (P21802 22-821): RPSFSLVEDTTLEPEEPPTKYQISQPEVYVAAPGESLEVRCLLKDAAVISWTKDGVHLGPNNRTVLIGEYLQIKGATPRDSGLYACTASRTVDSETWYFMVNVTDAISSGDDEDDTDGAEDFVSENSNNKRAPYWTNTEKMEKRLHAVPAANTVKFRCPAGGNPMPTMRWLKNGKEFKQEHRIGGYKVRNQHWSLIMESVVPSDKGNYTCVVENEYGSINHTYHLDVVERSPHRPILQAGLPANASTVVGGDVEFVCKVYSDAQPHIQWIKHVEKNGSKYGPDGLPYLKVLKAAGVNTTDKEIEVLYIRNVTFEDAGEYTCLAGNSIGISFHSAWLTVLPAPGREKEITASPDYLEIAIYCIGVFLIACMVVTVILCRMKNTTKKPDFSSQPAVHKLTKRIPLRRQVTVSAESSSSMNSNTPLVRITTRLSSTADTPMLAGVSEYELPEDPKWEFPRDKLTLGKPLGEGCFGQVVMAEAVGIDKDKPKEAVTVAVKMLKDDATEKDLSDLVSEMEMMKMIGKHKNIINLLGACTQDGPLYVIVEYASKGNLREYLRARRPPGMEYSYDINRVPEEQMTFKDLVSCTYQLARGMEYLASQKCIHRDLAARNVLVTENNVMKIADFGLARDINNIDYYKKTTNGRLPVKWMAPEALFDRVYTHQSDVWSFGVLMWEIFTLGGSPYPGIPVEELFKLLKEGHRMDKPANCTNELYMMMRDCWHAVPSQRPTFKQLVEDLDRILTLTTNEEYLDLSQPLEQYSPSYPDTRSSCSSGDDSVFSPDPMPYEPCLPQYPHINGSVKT
Excerpt: as §1, §2, §3, §4, §5, §6, §7, §8

AXL = target: T20, AXL (Homo sapiens, UniProt P30530)
T20 construct: purchased DiscoverX (DiscoveRx) KINOMEscan scanEDGE / KdELECT
T20 sequence (P30530 26-894): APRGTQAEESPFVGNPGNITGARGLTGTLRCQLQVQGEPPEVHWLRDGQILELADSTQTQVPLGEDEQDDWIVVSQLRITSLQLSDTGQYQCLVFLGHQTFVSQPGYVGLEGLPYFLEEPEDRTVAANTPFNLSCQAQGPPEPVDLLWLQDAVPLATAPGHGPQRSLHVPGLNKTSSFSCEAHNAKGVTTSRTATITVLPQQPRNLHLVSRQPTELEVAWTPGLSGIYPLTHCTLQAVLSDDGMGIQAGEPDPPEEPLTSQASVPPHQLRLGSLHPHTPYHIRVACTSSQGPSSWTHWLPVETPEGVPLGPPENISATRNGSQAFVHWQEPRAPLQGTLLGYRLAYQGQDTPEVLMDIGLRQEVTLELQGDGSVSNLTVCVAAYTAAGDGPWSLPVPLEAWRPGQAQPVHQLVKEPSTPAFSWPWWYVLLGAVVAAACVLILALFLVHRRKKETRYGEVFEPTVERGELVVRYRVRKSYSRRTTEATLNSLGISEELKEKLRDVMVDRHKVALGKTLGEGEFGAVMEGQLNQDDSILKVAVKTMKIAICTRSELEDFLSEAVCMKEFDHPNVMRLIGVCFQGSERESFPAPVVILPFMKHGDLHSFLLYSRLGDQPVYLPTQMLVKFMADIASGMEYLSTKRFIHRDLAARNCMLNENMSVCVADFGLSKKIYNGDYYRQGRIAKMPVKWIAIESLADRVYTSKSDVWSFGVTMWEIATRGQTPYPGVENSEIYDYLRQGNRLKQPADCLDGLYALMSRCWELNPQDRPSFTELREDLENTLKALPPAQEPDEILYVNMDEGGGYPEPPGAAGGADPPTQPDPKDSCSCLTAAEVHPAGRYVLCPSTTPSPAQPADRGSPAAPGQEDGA
Excerpt: as §1, §2, §3, §4, §5, §6, §7, §8

ZAP70 = target: T21, ZAP70 (Homo sapiens, UniProt P43403)
T21 construct: purchased DiscoverX (DiscoveRx) KINOMEscan scanEDGE / KdELECT
T21 sequence (P43403 whole entry): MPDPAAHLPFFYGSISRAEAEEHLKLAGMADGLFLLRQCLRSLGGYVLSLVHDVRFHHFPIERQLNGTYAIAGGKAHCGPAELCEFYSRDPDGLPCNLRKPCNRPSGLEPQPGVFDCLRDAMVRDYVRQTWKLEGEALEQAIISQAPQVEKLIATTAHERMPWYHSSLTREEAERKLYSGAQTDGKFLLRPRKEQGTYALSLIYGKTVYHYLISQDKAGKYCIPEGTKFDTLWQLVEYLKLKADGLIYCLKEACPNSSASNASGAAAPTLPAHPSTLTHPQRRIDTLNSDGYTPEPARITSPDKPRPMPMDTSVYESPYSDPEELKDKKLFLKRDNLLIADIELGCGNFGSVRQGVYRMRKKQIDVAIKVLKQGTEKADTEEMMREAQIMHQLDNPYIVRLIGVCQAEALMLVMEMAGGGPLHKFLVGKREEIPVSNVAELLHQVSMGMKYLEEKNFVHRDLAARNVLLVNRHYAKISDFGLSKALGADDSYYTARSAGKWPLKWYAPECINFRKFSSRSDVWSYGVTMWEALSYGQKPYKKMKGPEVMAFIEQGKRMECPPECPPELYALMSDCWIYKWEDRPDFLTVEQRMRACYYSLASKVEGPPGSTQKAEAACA
Excerpt: as §1, §2, §3, §4, §5, §6, §7, §8

PLK3 = target: T22, PLK3 (Homo sapiens, UniProt Q9H4B4)
T22 construct: purchased DiscoverX (DiscoveRx) KINOMEscan scanEDGE / KdELECT
Excerpt: as §1, §2, §3, §4, §5, §6, §7, §8

FLT3 = target: T23, FLT3 (Homo sapiens, UniProt P36888)
T23 construct: purchased DiscoverX (DiscoveRx) KINOMEscan scanEDGE / KdELECT
Excerpt: as §1, §2, §3, §4, §5, §6, §7, §8

ERBB2 = target: T24, ERBB2 (Homo sapiens, UniProt P04626)
T24 construct: purchased DiscoverX (DiscoveRx) KINOMEscan scanEDGE / KdELECT
Excerpt: as §1, §2, §3, §4, §5, §6, §7, §8

NEK7 = target: T25, NEK7 (Homo sapiens, UniProt Q8TDX7)
T25 construct: purchased DiscoverX (DiscoveRx) KINOMEscan scanEDGE / KdELECT
Excerpt: as §1, §2, §3, §4, §5, §6, §7, §8

ABL2 = target: T26, ABL2 (Homo sapiens, UniProt P42684)
T26 construct: purchased DiscoverX (DiscoveRx) KINOMEscan scanEDGE / KdELECT
Excerpt: as §1, §2, §3, §4, §5, §6, §7, §8

MINK = target: T27, MINK (Homo sapiens, UniProt Q8N4C8)
T27 construct: purchased DiscoverX (DiscoveRx) KINOMEscan scanEDGE / KdELECT
Excerpt: as §1, §2, §3, §4, §5, §6, §7, §8

ULK2 = target: T28, ULK2 (Homo sapiens, UniProt Q8IYT8)
T28 construct: purchased DiscoverX (DiscoveRx) KINOMEscan scanEDGE / KdELECT
T28 sequence (Q8IYT8 whole entry): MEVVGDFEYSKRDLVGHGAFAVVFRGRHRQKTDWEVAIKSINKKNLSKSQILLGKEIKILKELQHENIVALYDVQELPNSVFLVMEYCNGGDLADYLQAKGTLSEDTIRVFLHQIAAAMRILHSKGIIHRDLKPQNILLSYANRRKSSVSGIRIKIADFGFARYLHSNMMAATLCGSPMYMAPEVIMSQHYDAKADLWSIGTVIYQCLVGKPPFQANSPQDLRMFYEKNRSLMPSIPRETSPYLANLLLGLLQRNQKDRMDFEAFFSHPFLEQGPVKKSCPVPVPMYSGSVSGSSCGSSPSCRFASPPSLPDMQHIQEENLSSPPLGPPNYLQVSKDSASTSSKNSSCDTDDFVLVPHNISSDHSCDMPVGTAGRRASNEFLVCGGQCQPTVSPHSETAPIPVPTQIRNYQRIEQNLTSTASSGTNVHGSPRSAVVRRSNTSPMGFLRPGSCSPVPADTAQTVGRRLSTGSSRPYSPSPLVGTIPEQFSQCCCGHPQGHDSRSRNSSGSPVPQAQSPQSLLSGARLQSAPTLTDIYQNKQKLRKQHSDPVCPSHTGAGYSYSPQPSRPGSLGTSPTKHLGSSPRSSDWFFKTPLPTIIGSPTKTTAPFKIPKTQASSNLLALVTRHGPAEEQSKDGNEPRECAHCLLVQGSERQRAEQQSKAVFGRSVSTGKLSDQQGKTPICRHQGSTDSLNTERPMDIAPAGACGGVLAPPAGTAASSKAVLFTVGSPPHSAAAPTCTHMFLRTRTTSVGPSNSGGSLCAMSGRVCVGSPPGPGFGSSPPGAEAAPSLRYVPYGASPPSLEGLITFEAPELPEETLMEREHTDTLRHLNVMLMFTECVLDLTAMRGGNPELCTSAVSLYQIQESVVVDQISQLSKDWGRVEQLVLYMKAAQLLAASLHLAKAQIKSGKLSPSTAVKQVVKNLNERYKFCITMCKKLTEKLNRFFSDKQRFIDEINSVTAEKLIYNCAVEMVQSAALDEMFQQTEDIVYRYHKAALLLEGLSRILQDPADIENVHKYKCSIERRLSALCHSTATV
Excerpt: as §1, §2, §3, §4, §5, §6, §7, §8

BTK = target: T29, BTK (Homo sapiens, UniProt Q06187)
T29 construct: purchased DiscoverX (DiscoveRx) KINOMEscan scanEDGE / KdELECT
Excerpt: as §1, §2, §3, §4, §5, §6, §7, §8

EGFR(L858R) = target: T30, EGFR(L858R) (Homo sapiens, UniProt P00533, L858R)
T30 construct: purchased DiscoverX (DiscoveRx) KINOMEscan scanEDGE / KdELECT
Excerpt: as §1, §2, §3, §4, §5, §6, §7, §8

ALK = target: T31, ALK (Homo sapiens, UniProt Q9UM73)
T31 construct: purchased DiscoverX (DiscoveRx) KINOMEscan scanEDGE / KdELECT
Excerpt: as §1, §2, §3, §4, §5, §6, §7, §8

KIT(D816H) = target: T32, KIT(D816H) (Homo sapiens, UniProt P10721, D816H)
T32 construct: purchased DiscoverX (DiscoveRx) KINOMEscan scanEDGE / KdELECT
Excerpt: as §1, §2, §3, §4, §5, §6, §7, §8

MKNK2 = target: T33, MKNK2 (Homo sapiens, UniProt Q9HBH9)
T33 construct: purchased DiscoverX (DiscoveRx) KINOMEscan scanEDGE / KdELECT
Excerpt: as §1, §2, §3, §4, §5, §6, §7, §8

EGFR = target: T34, EGFR (Homo sapiens, UniProt P00533)
T34 construct: purchased DiscoverX (DiscoveRx) KINOMEscan scanEDGE / KdELECT
Excerpt: as §1, §2, §3, §4, §5, §6, §7, §8

PRKCE = target: T35, PRKCE (Homo sapiens, UniProt Q02156)
T35 construct: purchased DiscoverX (DiscoveRx) KINOMEscan scanEDGE / KdELECT
Excerpt: as §1, §2, §3, §4, §5, §6, §7, §8

PDGFRA = target: T36, PDGFRA (Homo sapiens, UniProt P16234)
T36 construct: purchased DiscoverX (DiscoveRx) KINOMEscan scanEDGE / KdELECT
Excerpt: as §1, §2, §3, §4, §5, §6, §7, §8

BRAF(V600E) = target: T37, BRAF(V600E) (Homo sapiens, UniProt P15056, V600E)
T37 construct: purchased DiscoverX (DiscoveRx) KINOMEscan scanEDGE / KdELECT
Excerpt: as §1, §2, §3, §4, §5, §6, §7, §8

TRKA = target: T38, TRKA (Homo sapiens, UniProt P04629)
T38 construct: purchased DiscoverX (DiscoveRx) KINOMEscan scanEDGE / KdELECT
Excerpt: as §1, §2, §3, §4, §5, §6, §7, §8

SRPK3 = target: T39, SRPK3 (Homo sapiens, UniProt Q9UPE1)
T39 construct: purchased DiscoverX (DiscoveRx) KINOMEscan scanEDGE / KdELECT
Excerpt: as §1, §2, §3, §4, §5, §6, §7, §8

PKACEalpha = target: T40, PKACEalpha (Homo sapiens, UniProt P17612)
T40 construct: purchased DiscoverX (DiscoveRx) KINOMEscan scanEDGE / KdELECT
Excerpt: as §1, §2, §3, §4, §5, §6, §7, §8

Cc1nc2ccc(-c3ccnc4ccccc34)c(C)c2c(=O)[nH]1 [compound 21, 2,5-Dimethyl-6-(quinolin-4-yl)quinazolin-4(3H)-one]
remaining binding at 1 µM (CHEK1): 100%
remaining binding at 1 µM (ERBB4): 100%
remaining binding at 1 µM (FGFR3): 100%
remaining binding at 1 µM (p38Ealpha): 90%
remaining binding at 1 µM (JNK1): 91%
remaining binding at 1 µM (CSNK1D): 88%
remaining binding at 1 µM (PAK4): 62%
remaining binding at 1 µM (CDK11): 90%
remaining binding at 1 µM (YANK3): 95%
remaining binding at 1 µM (AKT1): 100%
remaining binding at 1 µM (PAK1): 96%
remaining binding at 1 µM (DCAMKL1): 87%
remaining binding at 1 µM (TNK1): 90%
remaining binding at 1 µM (BMPR1B (ALK6)): 1.6%
remaining binding at 1 µM (CDK7): 100%
remaining binding at 1 µM (CDK9): 100%
remaining binding at 1 µM (BMPR2): 76%
remaining binding at 1 µM (KIT): 97%
remaining binding at 1 µM (FGFR2): 100%
remaining binding at 1 µM (AXL): 98%
remaining binding at 1 µM (ZAP70): 99%
remaining binding at 1 µM (PLK3): 96%
remaining binding at 1 µM (FLT3): 92%
remaining binding at 1 µM (ERBB2): 100%
remaining binding at 1 µM (NEK7): 100%
remaining binding at 1 µM (ABL2): 93%
remaining binding at 1 µM (MINK): 89%
remaining binding at 1 µM (ULK2): 77%
remaining binding at 1 µM (BTK): 100%
remaining binding at 1 µM (EGFR(L858R)): 98%
remaining binding at 1 µM (ALK): 100%
remaining binding at 1 µM (KIT(D816H)): 90%
remaining binding at 1 µM (MKNK2): 92%
remaining binding at 1 µM (EGFR): 98%
remaining binding at 1 µM (PRKCE): 91%
remaining binding at 1 µM (PDGFRA): 93%
remaining binding at 1 µM (BRAF(V600E)): 11%
remaining binding at 1 µM (TRKA): 93%
remaining binding at 1 µM (SRPK3): 96%
remaining binding at 1 µM (PKACEalpha): 100%
